Assay results from patent publication US20160287497A1, “USE AS A DEODORANT AGENT OF A SALIFIED SALICYLIC ACID DERIVATIVE, ALONE OR IN A MIXTURE” (L'OREAL, priority 2013, published 2016).

Assays:
Corynebacterium xerosis = experiment: Effect on Corynebacterium xerosis: growth inhibition in microplate, MIC; format: cell-based
Description: • Test principle: contacting of decreasing concentrations of compounds under evaluation with an identical inoculum of microorganisms in a culture medium suitable for the growth of C. xerosis.
The dilutions of the compounds under evaluation are performed in agar at 1:1000, making it possible, for dispersible compounds under evaluation, to do away with the use of a solvent which could introduce bias in the evaluation of the compounds. The concentration range chosen was: 1%, 0.3%, 0.03% and 0.003%. Each concentration was tested in triplicate.
To ensure that the potential inhibitory activity was not associated with a pH effect, the pH of the culture medium was verified at the end of incubation.
The compound mixtures M0 and M2 were evaluated based on this protocol, along with n-octanoyl-5-salicylic acid (comparison).

[1] = Anti-odor effect: ex-vivo olfactory evaluation test on incubated sweat
Description: The deodorant activity was evaluated in the ex-vivo olfactory evaluation test, on incubated sweat.
Each compound under evaluation was introduced at a rate of 0.3 mg into 1 mL of sweat. The compounds under evaluation were weighed in 25 or 30 mL pill bottles and 1 mL from a pool of fresh sweat was then added. The pill bottles were hermetically sealed and placed in an incubator at 35° C. for 24 hours. After being removed from the incubator, the pill bottles were opened and allowed to cool to ambient temperature.
A panel of sixteen people performed an olfactory analysis of each pill bottle. The efficacy of each compound evaluated was determined in comparison to a negative control (incubated sweat alone).

With CCCCCCCC(=O)c1ccc(O)c(C(=O)O)c1 [N-octanoyl-5-salicylic acid, n-octanoyl-5-salicylic acid] the “MIC C. xerosis” value (Corynebacterium xerosis; incubation 24 to 48 hours, Optical Density 620 nm vs growth control, range tested 1%, 0.3%, 0.03%, 0.003%, triplicate) was under 0.003%, the “growth of C. xerosis (result in words)” value (Corynebacterium xerosis; same protocol as Table 1) was “inhibit the growth of C. xerosis” and the “% Variation incubated sweat intensity” value ([1]; 0.3 mg in 1 mL of sweat, 35° C. for 24 hours, panel of sixteen people, vs incubated sweat alone) was −57%. For the same compound, the “unpleasant odor of incubated sweat (result in words)” value ([1]; same protocol as Table 2) was “reduce the unpleasant odor of incubated sweat”.
